One series deals with C2/C12 Ras tumors. The experiment in a line: Tumor uptake of 64Cu-labeled cathepsin probes in tumor-bearing mice (FIG. 7). It is filed as in vivo, mouse. The following applies: 64Cu-labeled probe; for tumor uptake after 2 hrs / tumor uptake after 24 hours: IV. The method, then:
Mice bearing tumors derived from […] C2/C12 Ras transformed cells were IV injected with ^64Cu-labeled probes. Images and total probe accumulation in tumors (arrows) is shown. For purposes of reproduction, the image is converted to black and white and reversed.
Essentially, two to four weeks prior to imaging MDA-MB 231 or C2C12/ras cells (a myoblast cell line wherein ras blocks differentiation) at 2×10^6 cell per spot were injected subcutaneous to the back of Balb-c nude mice.
Mice bearing tumors of similar size were injected intravenous via the tail vein with a DMSO/PBS solution of the compound to be tested. DMSO/PBS was locally injected directly into tumors in indicated mice, 15 minutes prior to probe injection. Fluorescent intensity as photons per second per centimeter square per steradian (p/s/cm2/sr) was recorded from living mice. Images were taken at various time points after probe injection using an IVIS 200 imaging system equipped with a Cy5.5 filter. Other protocols are known and may be adapted for administration and imaging in vivo using the present compounds. Another protocol for mouse studies is given in Joyce et al. “Cathepsin cysteine proteases are effectors of invasive growth and angiogenesis during multistage tumorigenesis,” Cancer Cell 5:443-452 (May 2004), at page 452.
In an initial attempt to make PET compatible cathepsin probes, a Cy5 tag was replaced with a group that could be used to bind ^64Cu. This was compound ^64Cu-DOTA-FFK-AOMK (GB172). […] Without wishing to be bound by any theory, it was reasoned that this poor accumulation in tumors was likely due to changes in the pharmacokinetic (PK) and cell permeability properties as the result of removal of the large, hydrophobic fluorophore molecule. While the improved uptake of the probe having both the macrocyclic chelator and the polyaromatic functionality (Cy5), it is thought that the combination of a bulky chelator and a substituted polyaromatic provided the probe molecule with provided a balance of mass, charge and hydrophobicity that gave the probe increased permeability through the outer lipid membranes of the cells. Following this logic, a version of GB-123 that retains the Cy5 fluorophore and also contains a site for attachment of the PET imaging tag was prepared. This was 64 Cu (GB170).

For series [1], the target named is cathepsin B (Homo sapiens, UniProt P07858). The experiment in a line: Kinetic inhibition study, cathepsin B. It is filed as biochemical. The following applies: kinetic inhibition studies. The text has this:
(§1) We attached the chelator and radionuclide to the probe at the P1 lysine side-chain. By attaching the radiolabel to a side chain, it is less likely to interfere with the binding of the AOMK warhead to the active protease. Previous work has shown that the majority of critical substrate interactions take place in the P2 position of the papain family proteases.
(§2) The kinetics of inhibition may be determined by progress curve method under pseudo-first order conditions with at least 10-fold molar excess of inhibitor. Recorded progress curves are analysed by non-linear regression according to the following equation (Bieth, J. G. Theoretical and practical aspects of proteinase inhibition kinetics. Methods Enzymol, 248, 59-84 (1995).) [P]=vz(1−e^−k·t)/k • where [P] is the product, vz is the velocity at time zero and k is the pseudo first order rate constant. Apparent rate constant (kapp) was determined from the slope of plot k versus [I]. […]
(§3) Activity of human cathepsin L is measured using the fluorogenic substrate Z-FRAMC37 (Bachem, USA) (Km=7.1 μM) and cathepsin B is assayed against the fluorogenic substrate Z-RR-AMC38 (Bachem, USA) (Km=114 μM). […] Increase of fluorescence (370 nm excitation, 460 nm emission) is continuously monitored for 30 minutes by Spectramax M5 spectrofluorimeter. (Molecular Devices, USA) and inhibition curves were recorded. […]

A further series has as its target human cathepsin L (Homo sapiens, UniProt P07711). Description: Kinetic inhibition study, cathepsin L. It is filed as biochemical. The following applies: kinetic inhibition studies.
Description: as §1, §2, §3

A further series has as its system cathepsins B and L. Description: Labeling of intact tumor cells (SDS-PAGE, gel scan). It is filed as cell-based, mouse (C2C12/Ras), human (MDA-MB-435). The source says:
FIG. 2 is a series of figures which, taken together, show the structure and function of representative in vivo probes. FIG. 2A is a schematic drawing of a chelator—conjugated probe, illustrating several component moieties. FIGS. 2B and 2C are gels showing expression and activity of enzyme targets of such probe, with a radionuclide label attached to the illustrated structure, showing the expression and activity of CB in a mouse myoblast cell line C2C12Ras and human breast cancer cell line MDA-MB-435. […] Cells were pretreated with JPM-OEt (50 μM) (+) or with control DMSO (0.1%) (−) for 2 h and labeled by addition of ^64Cu-Z-FK(DOTA)-AOMK (555 KBq, 15 μCi) to culture medium for 2 h. Cells were collected, lysed and analyzed after SDS-PAGE. The labeled proteases were visualized by scanning of the gel with a Typhoon 9410 imager.
Before applying the radiolabel probe in vivo we first tested the ability of the probe to label multiple tumor cell lines grown in vitro. We initially examined the labeling of the human breast cancer cell line MBA-MB-435 and a mouse myoblastoma cell line that had been transformed by overexpression of the ras oncogene (C2C12/Ras). Both of these cell lines were used for in vivo imaging studies with the NIRF-labeled cysteine cathepsin probes. To confirm earlier studies of these cells using the NIRF probes we labeled them with general Cy5-labeled probe GB123 (FIG. 1C). […] Labeling of the same cells with ^64Cu-Z-FK(DOTA)-AOMK confirmed that the DOTA produced a similar labeling pattern to that observed for the NIRF probe GB123.
C2C12/Ras and MDA-MB-435 cells (0.25 M each well) were seeded in a six-well plate one day before the study. Cells were pretreated with the general papain family protease inhibitor JPM-OEt (50 μM^28) or with control DMSO (0.1%) for 1 h and labeled by addition of ^64Cu-Z-FK(DOTA)-AOMK (555 KBq, 15 μCi) to culture medium for 2 h. Cells was then washed with PBS and lysed. Equal amounts of protein per lane were separated by 12% SDS-PAGE. […] The labeled bands were quantified with ImageJ 1.36b (public domain software from National Institute of Health).

The subject of series [2] is cathepsin B. The following applies: Kato et al. Nat Chem Biol 2005; cited from earlier work.
The test system of a further series is Cathepsin Z, H, J, C. The following applies: Kato et al. Nat Chem Biol 2005; cited from earlier work.
Series [3] can be described thus: Octanol/water partition coefficient. It is filed as physicochemical. The following applies: octanol / PBS pH 7.4, repeated 3 times. The protocol:
Octanol/water partition coefficient. To determine the lipophilicity of ^64Cu-Z-FK(DOTA)-AOMK, approximately 370 kBq of ^64Cu-labeled complex in 500 μl of PBS (pH 7.4) was added to 500 μl of octanol in an eppendorf microcentrifuge tube. The resulting biphasic system was mixed vigorously for 10 min and left at room temperature for another 60 min. The two phases were then separated by centrifugation at 2000 g for 5 min (model 5415R Eppendorf microcentrifuge; Brinkman, Westbury, N.Y.). From each layer, an aliquot of 100 μl was removed and counted in a γ-counter (Packard Instruments). The partition coefficient (log P) was then calculated as a ratio of counts in the octanol fraction to the counts in the water fraction. The experiment was repeated 3 times. The lipophilicity of the probe affects its in vivo pharmacokinetics, and should be modest (˜0), with hydrophobic and hydrophilic groups present. For further details, see Lin et al., “Role of Pharmacokinetics and Metabolism in Drug Discovery and Development,” Pharmacological Reviews, Vol. 49, Issue 4, 403-449, December 1997.

For a further series, the system named is C2C12/Ras tumors. Description: Biodistribution in nude mice bearing subcutaneous C2C12/Ras tumors. It is filed as in vivo, mouse. The following applies: C2C12/Ras tumor mice, i.v. 740 kBq. The protocol:
All animal studies were carried out in compliance with Federal and local institutional rules for the conduct of animal experimentation. Female athymic nude mice (nu/nu) were obtained from Charles River Laboratories (Boston, Mass.) at 7-8 weeks old and kept under sterile conditions. The nude mice were inoculated subcutaneously in the right shoulder with 2×10^6 cultured C2C12/Ras cells or 5×10^6 MDA-MB-435 cells. When the tumors reach 0.5-0.8 cm in diameter, the tumor bearing mice were subjected to in vivo biodistribution studies. For biodistribution studies, the mice bearing C2C12/Ras or MDA-MB-435 tumor xenografts (n=3 for each group) were injected with 740 KBq (20 μCi) of ^64Cu labeled tracer through the tail vein and sacrificed at different time points post injection (p.i.). Tumor and normal tissues of interest were removed and weighed, and their radioactivity was measured in a gamma-counter. The radioactivity uptake in the tumor and normal tissues was expressed as a percentage of the injected radioactive dose per gram of tissue (% ID/g).
We next examined the overall biodistribution of ^64Cu-Z-FK(DOTA)-AOMK using athymic nude mice carrying subcutaneously grafted C2C12/Ras and MDA-MB-435 tumors. […] Importantly, we observed rapid accumulation of radioactivity in the C2C12/Ras tumors expressing high levels of cysteine cathepsins (0.35±0.13% ID/g at 0.5 h p.i.). This activity remained in the tumors resulting in an uptake of 0.27±0.05% ID/g at 24 h p.i. For the MDA-MB-435 tumors with lower cysteine cathepsin expression, tumor uptake was approximately 2 fold lower at each time point relative to the C2C12/Ras tumors (P<0.05). […] The highest radioactivity was found in the liver due to high endogenous expression of various cysteine cathepsins. Moderate renal accumulation was also observed at all times in both tumor models.
Data are expressed as the percentage administered activity (injected dose) per gram of tissue (% ID/g) after intravenous injection of 740 kBq (20 μCi) of ^64Cu-Z-FK(DOTA)-AOMK at 0.5, 2, and 24 h pi (n=3). Significant lower tumor uptake and tumor/blood, tumor/muscle ratio in MDA-MB-435 breast cancer (P<0.05) were observed.

“Also recorded” adds a separate entry of the source.

human cathepsin L, sequence (P07711 114-333): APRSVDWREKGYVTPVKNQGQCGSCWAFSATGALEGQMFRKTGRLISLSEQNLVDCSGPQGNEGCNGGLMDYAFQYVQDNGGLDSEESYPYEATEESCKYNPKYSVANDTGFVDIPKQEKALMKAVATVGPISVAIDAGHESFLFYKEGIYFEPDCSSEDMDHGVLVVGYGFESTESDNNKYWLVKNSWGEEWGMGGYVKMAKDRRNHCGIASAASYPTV

With `CC[N+]1=C(/C=C/C=C/C=C2\N(CCCCCC(=O)NCCCC[C@H](NC(=O)[C@H](Cc3ccccc3)NC(=O)[C@H](Cc3ccccc3)NC(=O)CN3CCN(CC(=O)O)CCN(CC(=O)O)CCN(CC(=O)O)CC3)C(=O)COC(=O)c3c(C)cccc3C)c3ccc(S(=O)(=O)O)cc3C2(C)C)C(C)(C)c2cc(S(=O)(=O)O)ccc21` [GB 170, DOTA-FFK(Cy5)-AOMK], in the series with C2/C12 Ras tumors, the “Tumor uptake in PET studies (in words)” value was “dramatically increased uptake in tumor tissues”, the “tumor uptake after 2 hrs” value is on record as 3.17 ± 0.05 and the “tumor uptake after 24 hours” value is recorded as 1.56 ± 0.23.
As to `Cc1cccc(C)c1C(=O)OCC(=O)[C@H](CCCCN)NC(=O)[C@H](Cc1ccccc1)NC(=O)OCc1ccccc1` [NH2-GB11], on cathepsin B [1], the “Loss of potency for cathepsin B on modification of the P1 lysine” value is 30 fold. The “Loss of potency towards cathepsin L on modification of the P1 lysine” value at human cathepsin L was determined as 100 fold.
JPM-OEt: the “Effect of inhibitor pretreatment on probe labeling of protease targets” value in the series on cathepsins B and L (cells pretreated with 50 μM inhibitor, then labeled with 64Cu-Z-FK(DOTA)-AOMK) was “complete loss of labeling”.
Regarding `Cc1cccc(C)c1C(=O)OCC(=O)[C@H](CCCNC(=N)N)NC(=O)[C@H](Cc1ccccc1)NC(=O)OCc1ccccc1` [Z-FR-AOMK], the “Activity against cathepsin B” value in the series on cathepsin B [2] is given as “active only against cathepsin B; also recorded: inhibits cathepsin B”. For the same compound, the “Activity against cathepsins Z, H, J, C” value in the series on Cathepsin Z, H, J, C was “not cathepsins Z, H, J, H or C; also recorded: not Cathepsin Z, H, J, C or H”.
`Cc1cccc(C)c1C(=O)OCC(=O)[C@H](CCCCNC(=O)CN1CCN(CC(=O)O)CCN(CC(=O)O)CCN(CC(=O)O)CC1)NC(=O)[C@H](Cc1ccccc1)NC(=O)OCc1ccccc1` [Z-FK(DOTA)-AOMK]: the “log P (octanol-water partition coefficient)” value in series [3] is −0.10±0.04. Also, the “Biodistribution: Tumor” value with C2C12/Ras tumors (2 h p.i.) stood at 0.30±0.03 % ID/g; in the series on C2C12/Ras tumors (24 h p.i.), 0.27±0.05 % ID/g.
`Cc1cccc(C)c1C(=O)OCC(=O)[C@H](CCCCN)NC(=O)[C@H](Cc1ccccc1)NC(=O)[C@H](Cc1ccccc1)NC(=O)CN1CCN(CC(=O)O)CCN(CC(=O)O)CCN(CC(=O)O)CC1` [GB 172, DOTA-FFK-AOMK]: in the series with C2/C12 Ras tumors, the “Tumor uptake in PET studies (in words)” value is given as “overall probe uptake was very low”, the “tumor uptake after 2 hrs” value stood at 0.41 ± 0.07 and the “tumor uptake after 24 hours” value is 0.32 ± 0.04.
Regarding `CCN1C(=CC=CC=CC2=[N+](CCCCCC(=O)NCCCC[C@H](NC(=O)[C@H](Cc3ccccc3)NC(=O)OCc3ccccc3)C(=O)COC(=O)c3c(C)cccc3C)c3ccc(S(=O)(=O)O)cc3C2(C)C)C(C)(C)c2cc(S(=O)(=O)O)ccc21` [GB123], the “Cathepsin B and L activity of C2C12/Ras relative to MDA-MB-435 cells by probe labeling” value in the series on cathepsins B and L (cells labeled with Cy5-labeled probe) worked out at 7.4 fold.
Regarding `CC[N+]1=C(/C=C/C=C/C=C2\N(CCCCCC(=O)NCCCC[C@H](NC(=O)[C@H](Cc3ccccc3)NC(=O)[C@H](Cc3ccccc3)NC(=O)CN3CCN(CC(=O)O)CCN(CC(=O)O)CCN(CC(=O)O)CC3)C(N)=O)c3ccc(S(=O)(=O)O)cc3C2(C)C)C(C)(C)c2cc(S(=O)(=O)O)ccc21` [GB 173, DOTA-FFK(Cy5)-AOMK-Amide], in the series with C2/C12 Ras tumors, the “tumor uptake after 2 hrs” value turned out to be 1.71 ± 0.08 and the “tumor uptake after 24 hours” value came to 0.37 ± 0.13.

These data come from patent US8343458B2, “Probes for in vivo targeting of active cysteine proteases” (The Board of Trustees of the Leland Stanford Junior …, priority 2008, dated 2013).
